The experiment has as its target T1, human B-Raf (Homo sapiens, UniProt P15056).
T1 construct: Flag; GST; made in house; host or cells: Sf9 insect cells (B-Raf); E. coli (MEK1-GST)
Description: B-Raf Kinase to MEK1 ELISA. It counts as biochemical. The note with it: for inhibition at 10 µM: read-out: % Inhib./10 uM. Put shortly: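 Read-out is a DELFIA europium signal from phospho-MEK1 (Ser217/221) antibody after capture of GST-MEK1 (50 nM final) on anti-GST plates. Phosphorylation comes from Sf9-expressed Flag/GST human B-Raf (~20 ng) with ATP/MgCl2, 60 min RT, pH 7.2 MOPS.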

[1] abbreviates: median, cpd concentrations from 10 μM to 30 nM in half log dilutions, read-out: Median IC50.

Structures are written as SMILES. Where two headings read alike, the source gives them in different places.

The values below come from US20070219186A1, “Pyrazolo[1,5-A]pyrimidine derivatives and methods of use thereof” (priority 2006, published 2007).

T1 sequence (P15056 whole entry): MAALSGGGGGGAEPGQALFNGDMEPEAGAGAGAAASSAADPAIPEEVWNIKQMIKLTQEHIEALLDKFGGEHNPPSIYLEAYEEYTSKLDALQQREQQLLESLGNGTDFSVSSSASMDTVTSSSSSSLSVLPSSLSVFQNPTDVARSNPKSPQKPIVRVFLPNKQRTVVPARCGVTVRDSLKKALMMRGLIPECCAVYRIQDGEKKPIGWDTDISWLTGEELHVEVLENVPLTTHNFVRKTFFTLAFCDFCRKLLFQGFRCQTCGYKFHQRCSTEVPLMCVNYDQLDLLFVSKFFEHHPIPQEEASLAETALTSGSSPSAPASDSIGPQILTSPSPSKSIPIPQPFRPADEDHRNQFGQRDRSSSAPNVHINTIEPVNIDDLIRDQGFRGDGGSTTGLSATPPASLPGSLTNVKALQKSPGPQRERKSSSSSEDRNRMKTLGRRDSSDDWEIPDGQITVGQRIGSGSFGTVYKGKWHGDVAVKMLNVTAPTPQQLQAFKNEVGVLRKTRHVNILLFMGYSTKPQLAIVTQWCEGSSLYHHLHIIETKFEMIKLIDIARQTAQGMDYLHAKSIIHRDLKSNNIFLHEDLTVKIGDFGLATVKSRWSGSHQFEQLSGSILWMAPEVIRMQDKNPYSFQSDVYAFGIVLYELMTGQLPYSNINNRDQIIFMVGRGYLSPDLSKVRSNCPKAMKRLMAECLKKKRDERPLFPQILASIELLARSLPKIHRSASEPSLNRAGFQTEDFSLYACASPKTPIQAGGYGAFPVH

`CCOC(=O)c1cnn2c(-c3cccc(NC(=O)c4ccc(Cl)c(Cl)c4)c3)ccnc12` [Example 71, ethyl 7-{3-[(3,4-dichlorobenzoyl)amino]phenyl}pyrazolo[1,5-a]pyrimidine-3-carboxylate]: the inhibition at 10 µM was found to be 0%. Also, the concentration for half-maximal inhibition (IC50) under setting [1] is over 10 µM.

Take `CCOC(=O)c1cnn2c(-c3cccc(NC(=O)c4cc(Cl)cc(Cl)c4)c3)ccnc12` [Example 72, ethyl 7-{3-[(3,5-dichlorobenzoyl)amino]phenyl}pyrazolo[1,5-a]pyrimidine-3-carboxylate]: the inhibition at 10 µM stood at 4%. The IC50 under setting [1] was over 10 µM.

For `CCOC(=O)c1cnn2c(-c3cccc(NC(=O)c4ccc(OC)c(Cl)c4)c3)ccnc12` [Example 73, ethyl 7-{3-[(3-chloro-4-methoxybenzoyl)amino]phenyl}pyrazolo[1,5-a]pyrimidine-3-carboxylate], the inhibition at 10 µM is 5%. The half-maximal inhibitory concentration (IC50) under setting [1] was over 10 µM.

With `CCOC(=O)c1cnn2c(-c3cccc(NC(=O)c4cc(Cl)ccc4C)c3)ccnc12` [Example 74, ethyl 7-{3-[(5-chloro-2-methylbenzoyl)amino]phenyl}pyrazolo[1,5-a]pyrimidine-3-carboxylate], the inhibition at 10 µM came to 10%. Also, under setting [1], the half-inhibitory concentration (IC50) was over 10 µM.

In the case of `CCOC(=O)c1cnn2c(-c3cccc(NC(=O)c4cc(F)cc(C(F)(F)F)c4)c3)ccnc12` [Example 75, ethyl 7-(3-{[3-fluoro-5-(trifluoromethyl)benzoyl]amino}phenyl)pyrazolo[1,5-a]pyrimidine-3-carboxylate], the inhibition at 10 µM is 58%. Also, the half-inhibitory concentration (IC50) under setting [1] came out at 6.6 µM.

In the case of `CCOC(=O)c1cnn2c(-c3cccc(NC(=O)c4ccc(F)cc4C(F)(F)F)c3)ccnc12` [Example 76, ethyl 7-(3-{[4-fluoro-2-(trifluoromethyl)benzoyl]amino}phenyl)pyrazolo[1,5-a]pyrimidine-3-carboxylate], the inhibition at 10 µM was found to be 0%. In addition, the half-inhibitory concentration (IC50) under setting [1] was over 10 µM.

In the case of `CCOC(=O)c1cnn2c(-c3cccc(NC(=O)Nc4cc(OC)cc(C(F)(F)F)c4)c3)ccnc12` [Example 77, ethyl 7-{3-[({[3-methoxy-5-(trifluoromethyl)phenyl]amino}carbonyl)amino]phenyl}pyrazolo[1,5-a]pyrimidine-3-carboxylate], the inhibition at 10 µM was 72%. The IC50 under setting [1] is 0.99 µM.

In turn, `CCOC(=O)c1cnn2c(-c3cccc(NC(=O)Nc4ccc(C#N)c(C(F)(F)F)c4)c3)ccnc12` [Example 78, ethyl 7-{3-[({[4-cyano-3-(trifluoromethyl)phenyl]amino}carbonyl)amino]phenyl}pyrazolo[1,5-a]pyrimidine-3-carboxylate] yielded a concentration for half-maximal inhibition (IC50) of 0.57 µM. In addition, the inhibition at 10 µM (single point assay, 10 uM) is 85%.

As for `CCOC(=O)c1cnn2c(-c3cccc(NC(=O)Nc4ccc(C)c(C(F)(F)F)c4)c3)ccnc12` [Example 79, ethyl 7-{3-[({[4-methyl-3-(trifluoromethyl)phenyl]amino}carbonyl)amino]phenyl}pyrazolo[1,5-a]pyrimidine-3-carboxylate], the inhibition at 10 µM came out at 88%. The half-inhibitory concentration (IC50) under setting [1] stood at 0.37 µM.

With `CCOC(=O)c1cnn2c(-c3cccc(NC(=O)Nc4cccc(Cl)c4)c3)ccnc12` [Example 80, Ethyl 7-[3-({[(3-chlorophenyl)amino]carbonyl}amino)phenyl]-pyrazolo[1,5-a]pyrimidine-3-carboxylate], the inhibition at 10 µM came out at 47%.

For the compound `CCOC(=O)c1cnn2c(-c3cccc(NC(=O)Nc4ccc(OC)c(Cl)c4)c3)ccnc12` [Example 81, ethyl 7-[3-({[(3-chloro-4-methoxyphenyl)amino]carbonyl}amino)phenyl]pyrazolo[1,5-a]pyrimidine-3-carboxylate], the inhibition at 10 µM was found to be 50%. Further, under setting [1], the 50% inhibitory concentration (IC50) came out at 6.15 µM.

With `CCOC(=O)c1cnn2c(-c3cccc(NC(=O)Nc4ccc(C)c(Cl)c4)c3)ccnc12` [Example 82, ethyl 7-[3-({[(3-chloro-4-methylphenyl)amino]carbonyl}amino)phenyl]pyrazolo[1,5-a]pyrimidine-3-carboxylate], the inhibition at 10 µM came to 77%. In addition, the 50% inhibitory concentration (IC50) under setting [1] amounted to 0.57 µM.

Consider `CCOC(=O)c1cnn2c(-c3cccc(NC(=O)Nc4ccc(Br)c(Cl)c4)c3)ccnc12` [Example 83, ethyl 7-[3-({[(4-bromo-3-chlorophenyl)amino]carbonyl}amino)phenyl]pyrazolo[1,5-a]pyrimidine-3-carboxylate], for which the inhibition at 10 µM was determined as 71%. The IC50 under setting [1] is 0.6 µM.

For the compound `CCOC(=O)c1cnn2c(-c3cccc(NC(=O)Nc4ccc(N5CCOCC5)c(Cl)c4)c3)ccnc12` [Example 84, ethyl 7-[3-({[(3-chloro-4-morpholin-4-ylphenyl)amino]carbonyl}amino)phenyl]pyrazolo[1,5-a]pyrimidine-3-carboxylate], the inhibition at 10 µM turned out to be 22%. The IC50 under setting [1] was over 10 µM.

Regarding `CCOC(=O)c1cnn2c(-c3cc(NC(=O)c4cccc(C(F)(F)F)c4)ccc3[N+](=O)[O-])ccnc12` [Example 85, ethyl 7-(2-nitro-5-{[3-(trifluoromethyl)benzoyl]amino}phenyl)pyrazolo[1,5-a]pyrimidine-3-carboxylate], the inhibition at 10 µM was found to be 81%. Further, under setting [1], the IC50 came out at 0.41 µM.

Consider `CCOC(=O)c1cnn2c(-c3ccc(Cl)c(NC(=O)c4cccc(C(F)(F)F)c4)c3)ccnc12` [Example 86, ethyl 7-(4-chloro-3-{[3-(trifluoromethyl)benzoyl]amino}phenyl)pyrazolo[1,5-a]pyrimidine-3-carboxylate], for which the inhibition at 10 µM was found to be 18%. Further, the IC50 under setting [1] was over 10 µM.

Turning to `CCOC(=O)c1cnn2c(-c3ccc(N4CC(C)OC(C)C4)c(NC(=O)c4cccc(C(F)(F)F)c4)c3)ccnc12` (stereo not shown) [Example 87, ethyl 7-(4-(2,6-dimethylmorpholin-4-yl)-3-{[3-(trifluoromethyl)benzoyl]amino}phenyl)pyrazolo[1,5-a]pyrimidine-3-carboxylate], the inhibition at 10 µM was determined as 9%. For the same compound, the IC50 under setting [1] is over 10 µM.

`CCOC(=O)c1cnn2c(-c3ccc(OC)c(NC(=O)c4cccc(C(F)(F)F)c4)c3)ccnc12` [Example 88, ethyl 7-(4-methoxy-3-{[3-(trifluoromethyl)benzoyl]amino}phenyl)pyrazolo[1,5-a]pyrimidine-3-carboxylate]: the inhibition at 10 µM was 14%. For the same compound, under setting [1], the IC50 was over 10 µM.

In the case of `CCOC(=O)c1cnn2c(-c3ccc(F)c(NC(=O)c4cccc(C(F)(F)F)c4)c3)ccnc12` [Example 89, ethyl 7-(4-fluoro-3-{[3-(trifluoromethyl)benzoyl]amino}phenyl)pyrazolo[1,5-a]pyrimidine-3-carboxylate], the inhibition at 10 µM worked out at 65%. In addition, the half-maximal inhibitory concentration (IC50) under setting [1] amounted to 2.17 µM.

Turning to `CCOC(=O)c1cnn2c(-c3ccc(OCc4ccccc4)c(NC(=O)c4cccc(C(F)(F)F)c4)c3)ccnc12` [Example 90, ethyl 7-(4-(benzyloxy)-3-{[3-(trifluoromethyl)benzoyl]amino}phenyl)pyrazolo[1,5-a]pyrimidine-3-carboxylate], the inhibition at 10 µM worked out at 4%. Under setting [1], the 50% inhibitory concentration (IC50) is over 10 µM.

Turning to `CCOC(=O)c1cnn2c(-c3cc(NC(=O)c4cccc(C(F)(F)F)c4)ccc3F)ccnc12` [Example 91, ethyl 7-(2-fluoro-5-{[3-(trifluoromethyl)benzoyl]amino}phenyl)pyrazolo[1,5-a]pyrimidine-3-carboxylate], the inhibition at 10 µM was 94%. Under setting [1], the 50% inhibitory concentration (IC50) amounted to 0.112 µM.

Take `CCOC(=O)c1cnn2c(-c3cccc(NC(=O)Cc4cccc(Br)c4)c3)ccnc12` [Example 92, ethyl 7-(3-{[(3-bromophenyl)acetyl]amino}phenyl)pyrazolo[1,5-a]pyrimidine-3-carboxylate]: the inhibition at 10 µM came to 97%. For the same compound, the concentration for half-maximal inhibition (IC50) under setting [1] is over 10 µM.

On to `CCOC(=O)c1cnn2c(-c3cccc(NC(=O)Cc4cccc(F)c4)c3)ccnc12` [Example 93, ethyl 7-(3-{[(3-fluorophenyl)acetyl]amino}phenyl)pyrazolo[1,5-a]pyrimidine-3-carboxylate], for which the inhibition at 10 µM is 0%. Also, under setting [1], the IC50 was over 10 µM.

On to `CCOC(=O)c1cnn2c(-c3cccc(NC(=O)Cc4cccc(Cl)c4)c3)ccnc12` [Example 94, ethyl 7-(3-{[(3-chlorophenyl)acetyl]amino}phenyl)pyrazolo[1,5-a]pyrimidine-3-carboxylate], for which the inhibition at 10 µM stood at 14%. Under setting [1], the IC50 was over 10 µM.

As for `CCOC(=O)c1cnn2c(-c3cccc(NC(=O)Cc4ccc(Cl)c(Cl)c4)c3)ccnc12` [Example 95, ethyl 7-(3-{[(3,4-dichlorophenyl)acetyl]amino}phenyl)pyrazolo[1,5-a]pyrimidine-3-carboxylate], the inhibition at 10 µM is 39%. In addition, the 50% inhibitory concentration (IC50) under setting [1] was over 10 µM.

As to `CCOC(=O)c1cnn2c(-c3cccc(NC(=O)Cc4cccc(OC)c4)c3)ccnc12` [Example 96, ethyl 7-(3-{[(3-methoxyphenyl)acetyl]amino}phenyl)pyrazolo[1,5-a]pyrimidine-3-carboxylate], the inhibition at 10 µM was 0%. In addition, the IC50 under setting [1] is over 10 µM.

With `CCOC(=O)c1cnn2c(-c3cccc(NC(=O)Cc4cccc(C(F)(F)F)c4)c3)ccnc12` [Example 97, ethyl 7-[3-({[3-(trifluoromethyl)phenyl]acetyl}amino)phenyl]pyrazolo[1,5-a]pyrimidine-3-carboxylate], the inhibition at 10 µM amounted to 49%. In addition, the half-inhibitory concentration (IC50) under setting [1] is 8.6 µM.

As to `CCOC(=O)c1cnn2c(-c3cccc(NC(=O)Cc4cccc(C)c4)c3)ccnc12` [Example 98, ethyl 7-(3-{[(3-methylphenyl)acetyl]amino}phenyl)pyrazolo[1,5-a]pyrimidine-3-carboxylate], the inhibition at 10 µM came out at 15%. In addition, the half-inhibitory concentration (IC50) under setting [1] is over 10 µM.
